In patent US10208071B2, “Use of agonists of formyl peptide receptor 2 for treating ocular inflammatory diseases” (Allergan, Inc., priority 2013, dated 2019):
Like-named read-outs stand apart in the source and are kept apart here.

Target: FPR2 (Homo sapiens (Human), UniProt P25090)
Experiment: FLIPR Ca+2 response, HEK-Gα16 cells stably expressing the human FPR2 receptor (Table 4)
Format: cell-based
Conditions: for FPR2 (efficacy): efficacy in parentheses
Method: FLIPR: HEK-Gα16 cells stably expressing the human FPR2 receptor was utilized. Cells were plated into 384-well poly-D-lysine coated plates at a density of 18,000 cells per well one day prior to use. The growth media was DMEM medium supplemented with 10% fetal bovine serum (FBS), 1% antibiotic-antimycotic, 50 μg/ml hygromycin, and 400 μg/ml geneticin. On the day of the experiment, the cells were washed twice with Hank's Balanced Salt Solution supplemented with 20 mM HEPES (HBSS/hepes buffer). The cells were then dye loaded with 2 μM Fluo-4 diluted in the HBSS/Hepes buffer and incubated at 37° C. for 40 minutes. Extracellular dye was removed by washing the cell plates four times prior to placing the plates in the FLIPR (Fluorometric Imaging Plate Reader, Molecular Devices). Ligands were diluted in HBSS/Hepes buffer and prepared in 384-well microplates. Data for Ca^+2 responses were obtained in relative fluorescence units.

Sequence of FPR2 (P25090 whole entry): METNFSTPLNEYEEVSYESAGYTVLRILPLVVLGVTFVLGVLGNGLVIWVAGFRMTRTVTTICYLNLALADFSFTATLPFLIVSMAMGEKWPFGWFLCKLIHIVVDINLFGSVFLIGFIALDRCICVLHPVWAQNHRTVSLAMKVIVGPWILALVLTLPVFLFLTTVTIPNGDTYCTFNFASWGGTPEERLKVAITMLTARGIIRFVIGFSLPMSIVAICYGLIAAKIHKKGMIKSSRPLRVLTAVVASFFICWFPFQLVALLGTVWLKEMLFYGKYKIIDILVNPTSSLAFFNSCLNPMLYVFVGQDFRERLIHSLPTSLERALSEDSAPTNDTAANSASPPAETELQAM

| SMILES | FPR2 (efficacy) | EC50 [nM] | EC50 (unit inferred) [nM] |
| --- | --- | --- | --- |
| CC(C)C[C@H](NC(=O)Nc1ccc(Br)cc1)C(=O)N[C@H](C)CO [Compound 96, (2S)-2-{[(4-bromophenyl)carbamoyl]amino}-N-[(2R)-1-hydroxypropan-2-yl]-4-methylpentanamide] | nM (1.0) |  |  |
| CC(C)C1(CC(=O)NCCO)NC(=O)N(NC(=O)Nc2ccc(Br)cc2)C1=O (stereo not drawn) [Compound 133, 2-[1-{[(4-bromophenyl)carbamoyl]amino}-2,5-dioxo-4-(propan-2-yl)imidazolidin-4-yl]-N-(2-hydroxyethyl)acetamide] | nM (1.0) | 2.7 |  |
| CC(C)C[C@H](NC(=O)Nc1ccc(Br)cc1)C(=O)NCP(=O)(OC(C)C)OC(C)C [Compound 131, dipropan-2-yl ({[(2S)-2-{[(4-bromophenyl)carbamoyl]amino}-4-methylpentanoyl]amino}methyl)phosphonate] | nM (1.0) |  |  |
| CC[C@H](C)[C@H](NC(=O)Nc1ccc(Br)cc1F)C(=O)NCC(N)=O [Compound 62, (2S,3S)-N-(2-amino-2-oxoethyl)-2-{[(4-bromo-2-fluorophenyl)carbamoyl]amino}-3-methylpentanamide] | nM (1.0) | 10.3 |  |
| CC1(CCc2ccccc2O)NC(=O)N(NC(=O)Nc2ccc(Br)cc2F)C1=O (stereo not drawn) [Compound 106, 1-(4-bromo-2-fluorophenyl)-3-{4-[2-(2-hydroxyphenyl)ethyl]-4-methyl-2,5-dioxoimidazolidin-1-yl}urea] | nM (0.91) | 4 |  |
| CS(=O)(=O)c1ccc(NC(=O)Nc2ccc3c(c2)C(=O)N(CCc2c[nH]cn2)C(c2ccc(F)cn2)C3)cc1 (stereo not drawn) [Compound 25, 1-{3-(5-fluoropyridin-2-yl)-2-[2-(1H-imidazol-4-yl)ethyl]-1-oxo-1,2,3,4-tetrahydroisoquinolin-7-yl}-3-[4-(methylsulfonyl)phenyl]urea] | nM (1.0) |  |  |
| CCOC(=O)C1CCC2(CC1)NC(=O)N(NC(=O)Nc1ccc(Br)cc1)C2=O (stereo not drawn) [Compound 153, ethyl 3-{[(4-bromophenyl)carbamoyl]amino}-2,4-dioxo-1,3-diazaspiro[4.5]decane-8-carboxylate] | nM (0.99) | 12 |  |
| CC1(CCc2cccs2)NC(=O)N(NC(=O)Nc2ccc(Br)cc2)C1=O (stereo not drawn) [Compound 88, 1-(4-bromophenyl)-3-{4-methyl-2,5-dioxo-4-[2-(thiophen-2-yl)ethyl]imidazolidin-1-yl}urea] | nM (0.94) |  |  |
| O=C(O)[C@@H]1C2CCC([C@@H]1C(=O)Nc1ccc(Br)cc1)C21CC1 (relative stereo) [Compound 14, rel-(2R,3S)-3-[(4-bromophenyl)carbamoyl] spiro[bicyclo[2.2.1]heptane-7,1′-cyclopropane]-2-carboxylic acid] | nM (0.90) | 4 |  |
| CC1(CCc2ccccc2F)NC(=O)N(NC(=O)Nc2ccc(Br)cc2)C1=O (stereo not drawn) [Compound 80, 1-(4-bromophenyl)-3-{4-[2-(2-fluorophenyl)ethyl]-4-methyl-2,5-dioxoimidazolidin-1-yl}urea] | nM (99) | 14.3 |  |
| CC(C)C[C@H](NC(=O)Nc1ccc(Br)cc1F)C(=O)NCC(N)=O [Compound 84, (2S)-N-(2-amino-2-oxoethyl)-2-{[(4-bromo-2-fluorophenyl)carbamoyl]amino}-4-methylpentanamide] | nM (0.95) | 4.5 |  |
| CCC[C@H](NC(=O)Nc1ccc(Br)cc1)C(=O)NCP(=O)(OC(C)C)OC(C)C [Compound 125, dipropan-2-yl ({[(2S)-2-{[(4-bromophenyl)carbamoyl]amino}pentanoyl]amino}methyl) phosphonate] | nM (1.0) | 1.2 |  |
| CC1(CCc2ccccc2O)NC(=O)N(NC(=O)Nc2ccc(Br)cc2)C1=O (stereo not drawn) [Compound 109, 1-(4-bromophenyl)-3-{4-[2-(2-hydroxyphenyl)ethyl]-4-methyl-2,5-dioxoimidazolidin-1-yl}urea] | nM (0.93) |  |  |
| CCC[C@H](NC(=O)Nc1ccc(Br)cc1)C(=O)NCC(N)=O [Compound 79, (2S)-N-(2-amino-2-oxoethyl)-2-{[(4-bromophenyl)carbamoyl]amino} pentanamide] | nM (0.97) |  |  |
| O=C(Nc1ccc(I)cc1)N[C@@H](Cc1ccccc1)C(=O)O [Compound 51, (2S)-2-{[(4-iodophenyl)carbamoyl]amino}-3-phenylpropanoic acid] | nM (1.0) |  |  |
| O=C(Nc1ccc(Br)cc1)[C@@H]1C2CCC([C@@H]1C(=O)O)C21CC1 (stereo partly drawn) [Compound 44, (+) (2S,3R)-3-[(4-bromophenyl)carbamoyl]spiro[bicyclo[2.2.1]heptane-7,1′-cyclopropane]-2-carboxylic acid] | nM (0.98) |  |  |
| CC(C)C[C@H](NC(=O)Nc1ccc(Br)cc1F)C(=O)NCC(=O)O [Compound 7, {[(2S)-2-{[(4-bromo-2-fluorophenyl)carbamoyl]amino}-4-methylpentanoyl]amino}acetic acid] | (1.0) |  | 3.57 |

| SMILES | FPR2 (efficacy) | EC50 [nM] | EC50 (unit inferred) [nM] |
| --- | --- | --- | --- |
| CCC[C@H](NC(=O)[C@H](CC(C)C)NC(=O)Nc1ccc(Br)cc1)C(=O)OC(C)(C)C [Compound 100, tert-butyl (2S)-2-{[(2S)-2-{[(4-bromophenyl)carbamoyl]amino}-4-methylpentanoyl]amino} pentanoate] | nM (1.0) |  |  |
| CC1(CCc2ccccc2)NC(=O)N(NC(=O)Nc2ccc(Br)cc2)C1=O (stereo not drawn) [Compound 54, 1-(4-bromophenyl)-3-[4-methyl-2,5-dioxo-4-(2-phenylethyl)imidazolidin-1-yl]urea] | nM (0.87) |  |  |
| CSCC[C@H](NC(=O)Nc1ccc(Br)cc1)C(=O)NCC(=O)O [Compound 144, {[(2S)-2-{[(4-bromophenyl)carbamoyl]amino}-4-(methylsulfanyl)butanoyl]amino} acetic acid] | nM (0.91) | 6.3 |  |
| CC(C)C[C@H](NC(=O)Nc1ccc(I)cc1)C(=O)O [Compound 121, (2S)-2-{[(4-iodophenyl)carbamoyl]amino}-4-methylpentanoic acid] | nM (0.93) | 4 |  |
| CC(C)C[C@H](NC(=O)Nc1ccc(Br)cc1)C(=O)NC(C)(C)C(=O)O [Compound 6, 2-{[(2S)-2-{[(4-bromophenyl)carbamoyl]amino}-4-methylpentanoyl]amino}-2-methylpropanoic acid] | (0.91) |  | 1.66 |
| CC(C)C1(CO)NC(=O)N(NC(=O)Nc2ccc(Br)cc2)C1=O (stereo not drawn) [Compound 132, 1-(4-bromophenyl)-3-[4-(hydroxymethyl)-2,5-dioxo-4-(propan-2-yl)imidazolidin-1-yl]urea] | nM (0.86) | 16.2 |  |
| CCOC(=O)CCC1(C(C)C)NC(=O)N(NC(=O)Nc2ccc(Br)cc2)C1=O (stereo not drawn) [Compound 149, ethyl 3-[1-{[(4-bromophenyl)carbamoyl]amino}-2,5-dioxo-4-(propan-2-yl)imidazolidin-4-yl]propanoate] | nM (0.94) | 6.6 |  |
| CC[C@H](C)[C@H](NC(=O)Nc1ccc(Br)cc1F)C(=O)O [Compound 5, (2S,3S)-2-{[(4-bromo-2-fluorophenyl)carbamoyl]amino}-3-methylpentanoic acid] | (0.96) |  | 31 |
| CC(C)C[C@H](NC(=O)Nc1ccc(Br)cc1)C(=O)O [Compound 9, (2S)-2-{[(4-bromophenyl)carbamoyl]amino}-4-methylpentanoic acid] | (0.77) |  | 5.95 |
| CC[C@H](C)[C@H](NC(=O)Nc1ccc(Br)cc1)C(=O)NCC(C)=O [Compound 63] | nM (0.97) | 10.5 |  |
| O=C(O)C1C(C(=O)Nc2ccc(I)cc2)C2C=CC1C21CC1 (stereo not drawn) [Compound 11, 3-[(4-iodophenyl)carbamoyl] spiro[bicyclo[2.2.1]heptane-7,1′-cyclopropane]-5-ene-2-carboxylic acid] | nM (1.00) | 1.6 |  |
| CCC[C@H](NC(=O)Nc1ccc(Br)cc1)C(=O)NCP(=O)(OCC)OCC [Compound 117, diethyl ({[(2S)-2-{[(4-bromophenyl)carbamoyl]amino}pentanoyl]amino}methyl) phosphonate] | nM (1.0) | 0.27 |  |
| O=C(Nc1ccc(Br)cc1F)N[C@@H](Cc1ccccc1)C(=O)NCCO [Compound 71, (2S)-2-{[(4-bromo-2-fluorophenyl)carbamoyl]amino}-N-(2-hydroxyethyl)-3-phenylpropanamide] | nM (0.98) | 15.6 |  |
| C[S+]([O-])c1ccc(NC(=O)Nc2ccc3c(c2)C(=O)N(CCCNC(=O)OC(C)(C)C)[C@@H](c2ccc(C#N)cc2)C3)cc1 (stereo partly drawn) [Compound 40, (+) tert-butyl {3-[(3R)-3-(4-cyanophenyl)-7-({[4-(methylsulfinyl)phenyl]carbamoyl}amino)-1-oxo-3,4-dihydroisoquinolin-2(1H)-yl]propyl}carbamate] | nM (0.91) | 103 |  |
| CCC1(C(C)C)NC(=O)N(NC(=O)Nc2ccc(Br)cc2)C1=O (single isomer, unassigned; (+)) [Compound 66, (+)1-(4-bromophenyl)-3-[4-ethyl-2,5-dioxo-4-(propan-2-yl)imidazolidin-1-yl]urea] | nM (0.96) |  |  |
| CSc1ccc(NC(=O)Nc2ccc3c(c2)C(=O)N(CCCN)C(c2ccc(C#N)cc2)C3)cc1 (stereo not drawn) [Compound 16, 1-[2-(3-aminopropyl)-3-(4-cyanophenyl)-1-oxo-1,2,3,4-tetrahydroisoquinolin-7-yl]-3-[4-(methylsulfanyl)phenyl]urea] | nM (0.70) |  |  |
